We go through one compound from ChEMBL document CHEMBL4739710, “Tetrahydropyridopyrazines as modulators of GPR6” (2020).

Molecules are shown by their SMILES.

For orientation: EC50 means the concentration needed to bring the measured effect to its halfway point.

This test concerns the target G-protein coupled receptor 6 (Homo sapiens, UniProt P46095). The test is described as follows: Modulation of GPR6 (unknown origin) expressed in CHO-K1 cells assessed as inhibition of constitutive cAMP activity by HTRF assay. Format: functional, cell-based. (In TR-FRET formats the signal depends on donor and acceptor labels being close together.)

Sequence of G-protein coupled receptor 6 (P46095 whole entry): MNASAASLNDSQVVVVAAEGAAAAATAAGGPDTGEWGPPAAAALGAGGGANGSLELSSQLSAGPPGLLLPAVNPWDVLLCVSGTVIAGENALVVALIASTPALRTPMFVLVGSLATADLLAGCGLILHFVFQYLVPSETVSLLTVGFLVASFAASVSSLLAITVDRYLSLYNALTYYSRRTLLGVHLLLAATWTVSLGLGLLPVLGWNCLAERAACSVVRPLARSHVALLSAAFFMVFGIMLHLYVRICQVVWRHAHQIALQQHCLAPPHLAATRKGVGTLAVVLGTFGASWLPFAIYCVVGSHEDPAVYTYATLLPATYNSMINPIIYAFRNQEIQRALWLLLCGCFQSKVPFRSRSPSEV

As for `Cc1cc2nc(N[C@@H]3CCOC3)c(N3CCN(Cc4ccc(F)cc4F)CC3)nc2cn1`, the concentration for a half-maximal effect (EC50) came to 0.0479 µM.
